In US4889851A, “Benzothiadiazine compounds, and pharmaceutical composition comprising the same” (Fujisawa Pharmaceutical Co, Ltd., priority 1986, dated 1989):

System: Neonatal calvaria (bone resorption)
Test: Inhibition of hPTH-induced bone resorption in cultured neonatal rat calvaria (calcium accumulation in medium)
Assay type: cell-based, rat (Wistar)
Settings: Test Compound 1×10^-5 M with hPTH(1-34) 1×10^-8 M; calvaria halves cultured 6 days at 37° C.; total calcium in medium by OCPC method
Protocol: Neonatal calvaria were dissected aseptically from 1-2 day old rat (Wistar), washed in Dulbecco's modified eagle's medium and divided along the sagittal suture. The calvaria halves were pooled and randomized in the different groups. The calvaria halves were cultured separately as free-floating bones in multi-well dishes containing a 2 ml of Dubecco's modified eagle's medium, with 10% heat-inactivated (56° C. for 1 hr) fetal calf serum. Treatment of hPTH(1-34)(1×10 ^-8 M) and the Test Compound (1×10 ^-5 M) was begun at zero time. All incubations were performed at 37° C., under an atmosphere of 95% air and 5% CO2 for 6 days. Bone resorption was determined by measuring the accumulation of calcium in the medium at 6 days. The concentration of total calcium in culture medium was measured by OCPC method with a spectrophotometer (Hitachi model U-3200, Tokyo, Japan).
As comparative data, similar tests were conducted using culture medium with hPTH (1×10^-8 M)only, and culture medium without both hPTH and Test Compound.
Test results were represented in terms of percentage of inhibition calculated by the following formula: [formula] CD the concentration of total calcium in culture medium treated with both hPTH and Test Compound
CO the concentration of total calcium in control culture medium without both hPTH and Test Compound
CP the concentration of total calcium in culture medium treated with hPTH only

CC(C)Oc1ccc2c(c1)N(C)C(=O)N(c1ccc(Cl)cc1)S2(=O)=O [(a), 2-(4-Chlorophenyl)-6-isopropoxy-4-methyl-2H-1,2,4-benzothiadiazine-3(4H)-one 1,1-dioxide]
Inhibition (%): 79.7%

CC(C)COc1ccc2c(c1)N(C)C(=O)N(c1ccc(Cl)cc1)S2(=O)=O [(b), 2-(4-Chlorophenyl)-4-methyl-6-(2-methylpropoxy)-2H-1,2,4-benzothiadiazine-3(4H)-one 1,1-dioxide]
Inhibition (%): 56.1%

CN1C(=O)N(c2ccc(Cl)cc2)S(=O)(=O)c2ccc(OCC3CCCCC3)cc21 [(c), 2-(4-Chlorophenyl)-4-methyl-6-cyclohexylmethoxy-2H -1,2,4-benzothiadiazine-3(4H)-one 1,1-dioxide]
Inhibition (%): 62.5%

CC(C)Oc1ccc2c(c1)N(C)C(=O)N(c1ccc(C(F)(F)F)cc1)S2(=O)=O [(d), 2-(4-Trifluoromethylphenyl)-4-methyl-6-isopropoxy-2H-1,2,4-benzothiadiazine-3(4H)-one 1,1-dioxide]
Inhibition (%): 52.9%

CC(Oc1ccc2c(c1)N(C)C(=O)N(c1ccc(Cl)cc1)S2(=O)=O)C(=O)O (stereo not drawn) [(e), 2-(4-Chlorophenyl)-6-(l-carboxyethoxy)-4-methyl-2H-1,2,4-benzothiadiazine-3(4H)-one 1,1-dioxide]
Inhibition (%): 67.9%

C[C@@H](Oc1ccc2c(c1)N(C)C(=O)N(c1ccc(Cl)cc1)S2(=O)=O)C(=O)O [(f), (1R)-(+)-2-(4-Chlorophenyl)-6-(l-carboxyethoxy)-4-methyl-2H-1,2,4-benzothiadiazine-3(4H)-one 1,1-dioxide]
Inhibition (%): 50.2%
